Values of other authors, collected in patent US12268663B2, “Method for treating pruritus” (Pruvyc Pharma, LLC, priority 2020, dated 2025).

Legend:
histamine H1 receptor = histamine H1 receptor (Homo sapiens, UniProt P35367)
serotonin S2 receptor = serotonin S2 receptor (Homo sapiens, UniProt P28223)
[1] = system: connective tissue mast cells

Sequence of serotonin S2 receptor (P28223 whole entry): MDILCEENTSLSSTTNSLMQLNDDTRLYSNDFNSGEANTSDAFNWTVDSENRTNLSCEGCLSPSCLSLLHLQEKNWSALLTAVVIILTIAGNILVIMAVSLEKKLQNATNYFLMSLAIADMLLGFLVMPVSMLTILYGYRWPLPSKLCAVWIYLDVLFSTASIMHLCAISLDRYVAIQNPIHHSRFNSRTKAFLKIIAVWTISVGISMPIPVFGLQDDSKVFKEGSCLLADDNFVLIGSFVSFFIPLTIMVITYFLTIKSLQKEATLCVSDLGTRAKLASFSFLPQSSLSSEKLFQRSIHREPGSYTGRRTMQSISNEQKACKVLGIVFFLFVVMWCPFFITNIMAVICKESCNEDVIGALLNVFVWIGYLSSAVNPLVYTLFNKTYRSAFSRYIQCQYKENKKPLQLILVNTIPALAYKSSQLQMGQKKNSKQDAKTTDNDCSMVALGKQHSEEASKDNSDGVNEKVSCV
Sequence of histamine H1 receptor (P35367 whole entry): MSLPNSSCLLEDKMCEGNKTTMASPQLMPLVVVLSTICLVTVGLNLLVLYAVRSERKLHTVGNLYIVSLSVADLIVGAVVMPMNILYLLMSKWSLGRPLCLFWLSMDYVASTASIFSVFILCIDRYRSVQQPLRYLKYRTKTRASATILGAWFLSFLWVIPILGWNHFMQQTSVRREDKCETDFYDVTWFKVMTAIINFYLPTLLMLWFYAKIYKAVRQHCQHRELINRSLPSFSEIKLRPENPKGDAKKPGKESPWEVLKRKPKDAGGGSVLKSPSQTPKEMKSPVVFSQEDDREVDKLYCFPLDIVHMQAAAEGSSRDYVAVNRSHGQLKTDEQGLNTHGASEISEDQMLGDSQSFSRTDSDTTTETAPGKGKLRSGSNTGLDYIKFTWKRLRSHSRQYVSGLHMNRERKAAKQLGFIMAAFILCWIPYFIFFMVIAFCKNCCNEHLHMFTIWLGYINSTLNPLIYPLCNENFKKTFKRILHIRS

CN(C)CC/C=C1/c2ccccc2COc2ccc(CC(=O)O)cc21 [Olopatadine, olopatadine]
binding to histamine H1 receptor (histamine H1 receptor): bind | binding to serotonin S2 receptor (serotonin S2 receptor): bind | allergic mediator release from connective tissue mast cells [1]: inhibits allergic mediator release
